Experimental findings from patent EP0811621A2, “Carbamoyl substituted oxazoles as thromboxane receptor antagonists” (ELI LILLY AND COMPANY, priority 1996, dated 1997) are described below.

pIC50, pKd: −log10 of the molar value. A value given as a limit tells only on which side of the number the result lay.

Assay [1] concerns the target T1, thromboxane synthase (Homo sapiens, UniProt P24557).
T1 construct: from tissue; host or cells: whole human blood
T1 sequence (P24557 1-533): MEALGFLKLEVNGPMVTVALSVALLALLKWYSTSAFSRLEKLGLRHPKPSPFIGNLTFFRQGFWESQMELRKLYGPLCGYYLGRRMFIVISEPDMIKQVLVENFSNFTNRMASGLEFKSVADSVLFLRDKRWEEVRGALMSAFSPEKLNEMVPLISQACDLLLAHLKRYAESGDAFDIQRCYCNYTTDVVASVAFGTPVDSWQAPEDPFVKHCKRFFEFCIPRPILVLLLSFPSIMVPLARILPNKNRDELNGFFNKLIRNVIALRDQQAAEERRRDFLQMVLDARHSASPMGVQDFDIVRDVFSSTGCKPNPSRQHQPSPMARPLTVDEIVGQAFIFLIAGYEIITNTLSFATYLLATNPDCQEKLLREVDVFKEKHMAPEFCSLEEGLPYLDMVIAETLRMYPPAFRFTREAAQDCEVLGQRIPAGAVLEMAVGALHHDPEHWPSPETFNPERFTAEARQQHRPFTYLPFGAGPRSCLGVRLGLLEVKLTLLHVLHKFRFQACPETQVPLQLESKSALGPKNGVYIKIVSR
Put plainly: Thromboxane synthase inhibition in vitro (whole human blood, serum TXB2 by radioimmunoassay). Type of assay: cell-based. The note with it: 30 min at 37 °C. Here is the method:
Measurement of Thromboxane Synthase Inhibition and Prostacyclin Formation:
(§1) • 1. In vitro Experiments. The ability of a test compound to inhibit thromboxane synthase, as well as to change the amount of prostacyclin formed, were measured using published methods. […] Serum TXB2 and 6-keto-PGF1a, the stable metabolites of TXA2 and prostacyclin (PGI2), respectively, were measured by radioimmunoassay as described (Jakubowski, J.A., et al., Arteriosclerosis, (1987), 7, 599-604). The ability of a test compound to inhibit thromboxane synthase is expressed in the form of its IC50. […] Sprague Dawley rats (300 g males) were dosed by oral gavage with either vehicle (5% acacia) or 1-10 mg/kg test compound. Blood samples were collected 1 h after dosing. Animals were anesthetized (sodium pentobarbitol, 87 mg/kg i.p.) 15 min before sample collection. Blood samples were obtained by cardiac puncture via a butterfly catheter and the first mL of blood was discarded. Blood samples were divided into duplicates and incubated at 37 °C for 1 h in 13x100 mm glass tubes. Serum was separated by centrifugation at 2000 x g for 15 min at 25 °C, transferred to polypropylene tubes, and stored at -20 °C for subsequent assay using the methods referenced above.

Assay [2] has as its system TXA2/PGH2 receptor-induced human platelet aggregation. Put plainly: Platelet Aggregation Studies (U46619-induced aggregation in platelet-rich plasma). Type of assay: cell-based. The note with it: read-out: IC50, concentration of test compound required to inhibit U46619-induced platelet aggregation by 50%, U46619 (1 micromolar), 1 min preincubation at 37 °C. Here is the method:
(§2) Measurement of Thromboxane Receptor Antagonism:
(§3) • 1. Receptor Binding Assay. Membranes from outdated human platelets were prepared as previously described (Mais, D. E., et al., Eur. J. Pharmacol. (1992), 227, 267-274). Incubations (220 µL) containing 10 µg of platelet membranes were performed in siliconized glass tubes (12 x 75 mm) at 30 °C for 30 min. The incubation media consisted of 10 mM Hepes, 2 mM CHAPS, 10 µM Indomethacin (pH = 7.4), ∼0.05 nM (∼25000 cpm) of [^125I]IBOP per tube, and varying concentrations of competing ligands ranging from 10^-10 to 10^-5 M. The reaction was terminated by addition of 4 mL of ice cold buffer (25 mM Tris) at pH 7.4, followed by rapid filtration through Whatman GF/C glass filters pre-soaked in 0.3% polyethyleneamine (Whatman, Inc., Clifton, NJ) using a Brandel M-24 cell harvester (Gaithersburg, MD). Non-specific binding was defined as that amount of radioactivity bound in the presence of a large molar excess (10 µM) of SQ29548, a potent TXA2/PGH2 receptor antagonist. The binding in this assay is defined in terms of the dissociation constant Kd. […] Platelet Aggregation Studies. The ability of a test compound to antagonize TXA2/PGH2 receptor-induced human platelet aggregation was studied in the following manner. Blood was collected from volunteers who denied taking any medication known to influence platelet aggregation within the previous 10 days. […] Platelet-rich plasma was prepared by centrifugation at 100 x g for 12 min, and platelet-poor plasma was prepared by centrifugation at 12,000 x g for 2 min. Receptor activation and subsequent platelet aggregation was induced by the addition of the stable analog of TXA2/PGH2, U46619 (1 micromolar). Aggregation was monitored in a Biodata PAP4 platelet aggregation profiler for 3 min after the addition of U46619. Test compound or vehicle was preincubated with platelet-rich plasma for 1 min at 37 °C prior to the induction of aggregation with U46619.

In assay [3] the target is T2, TXA2/PGH2 receptor (Homo sapiens, UniProt P21731).
T2 construct: Membranes from outdated human platelets were prepared as previously described; from tissue; host or cells: human platelets (membranes)
T2 sequence (P21731 1-343): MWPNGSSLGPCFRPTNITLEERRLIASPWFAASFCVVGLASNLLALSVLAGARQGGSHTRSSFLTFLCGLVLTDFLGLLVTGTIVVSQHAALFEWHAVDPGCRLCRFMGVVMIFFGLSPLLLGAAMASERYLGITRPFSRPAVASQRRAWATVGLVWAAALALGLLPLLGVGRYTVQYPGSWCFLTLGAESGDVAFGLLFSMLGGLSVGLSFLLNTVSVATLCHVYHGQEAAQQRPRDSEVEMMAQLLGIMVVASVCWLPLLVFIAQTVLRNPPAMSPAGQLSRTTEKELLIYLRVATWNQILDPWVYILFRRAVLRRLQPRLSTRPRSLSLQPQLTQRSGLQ
Put plainly: Receptor Binding Assay ([125I]IBOP, platelet membranes). The note with it: 30 °C for 30 min. Here is the method:
as §2, §3

In assay [4] the test system is pithed rats. Put plainly: Absence of Agonist Activity (pressor response after i.v. administration). Type of assay: in vivo.
For assay [5], the system named is TXA2 formation. Put plainly: Ex vivo inhibition of TXA2 formation following oral administration. Type of assay: in vivo. The note with it: Rattus norvegicus, 1 h, Sprague Dawley rats, oral gavage, one hour after dosing. Here is the method:
as §1

As a reminder, the pKd is the Kd on a negative log10 scale, so that one unit is a factor of ten. The low end stands for a large Kd, the high end for a small Kd. For orientation: inhibition means the drop in the measured response relative to a control, in per cent. Read a low inhibition as little suppression.

`O=C(O)CCCC/C=C(/c1ccc(C2=N[C@H](C(=O)NCCCCC3CCCCC3)CO2)cc1)c1cccnc1` [Example 3, (4S)-(Z)-7-[4-[4-[[(4-Cyclohexylbutyl)amino]carbonyl]-4,5-dihydro-2-oxazolyl]phenyl]-7-(3-pyridyl)hept-6-enoic Acid]: the pIC50 in assay [1] is below 5.00.

In the case of `O=C(O)CCCC/C=C(\c1ccc(-c2nc(C(=O)N[C@@H]3C[C@H]3c3ccccc3)co2)cc1)c1cccnc1` (single isomer, unassigned) [Example 19, (+)-(E)-7-[4-[4-[[(2-(trans)Phenylcyclopropyl)amino]carbonyl]-2-oxazolyl]phenyl]-7-(3-pyridyl)hept-6-enoic Acid], the pIC50 in assay [2] was 5.30.

The molecule `CC(OCCCNC(=O)c1coc(-c2ccc(/C(=C\CCCCC(=O)O)c3cccnc3)cc2)n1)C1CCCCC1` (centres unmarked) [Example 26, (E)-7-[4-[4-[[[3-(1-Cyclohexylethoxy)propyl]amino]carbonyl)-2-oxazolyl]phenyl]-7-(3-pyridyl)hept-6-enoic Acid] showed a pKd in assay [3] of 7.24. Moreover, the values for the pIC50 in assay [2] and in assay [1] were 5.30 and 7.94, respectively.

`O=C(O)CCCC/C=C(/c1ccc(-c2nc(C(=O)NCCCCC3CCCCC3)co2)cc1)c1cccnc1` [Example 4, (Z)-7-[4-[4-[[(4-Cyclohexylbutyl)amino]carbonyl]-2-oxazolyl]phenyl]-7-(3-pyridyl)hept-6-enoic Acid] showed a pIC50 in assay [1] below 5.00.

On to `O=C(O)CCC/C=C\C[C@H]1[C@@H]2CC[C@@H](C2)[C@@H]1NS(=O)(=O)c1ccccc1` [Example S-145, reference compound], for which the mean arterial pressure result in assay [4] (one minute after dosing at 0.1 mg/kg i.v.) is reported as “transient, but significant, increase”.

`O=C(O)CCCC/C=C(\c1ccc(-c2nc(C(=O)NCCCCOc3ccccc3)co2)cc1)c1cccnc1` [Example 30, (E)-7-[4-[4-[[(4-Phenoxybutyl)amino]carbonyl]-2-oxazolyl]phenyl]-7-(3-pyridyl)hept-6-enoic Acid] showed a pKd in assay [3] of 7.28. Further, the pIC50 was 6.30 in assay [2] and 7.31 in assay [1].

`O=C(O)CCCC/C=C(\c1ccc(-c2nc(C(=O)NCCCCC3CCCCC3)co2)cc1)c1cccnc1` [Example 2, (E)-7-[4-[4-[[(4-Cyclohexylbutyl)amino]carbonyl]-2-oxazolyl]phenyl]-7-(3-pyridyl)hept-6-enoic Acid]: in assay [3], the pKd was 8.00. For the same molecule, the pIC50 in assay [2] was 6.40; in assay [1], 7.26. Further, in assay [4] (pithed rats, i.v., doses up to 10 mg/kg), the “pressor response (TXA2 agonist activity)” value is “absence of a pressor response”. Moreover, the inhibition at 3 mg/kg in assay [5] is above 95%.

In assay [3], `O=C(O)CCCC/C=C(\c1ccc(-c2nc(C(=O)NCCCN3CCOCC3)co2)cc1)c1cccnc1` [Example 27, (E)-7-[4-[4-[[(3-Morpholinopropyl)amino]carbonyl]-2-oxazolyl]phenyl]-7-(3-pyridyl)hept-6-enoic Acid] showed a pKd below 5.00.

`O=C(O)CCCC/C=C(\c1ccc(C2=N[C@H](C(=O)NCCCCC3CCCCC3)CO2)cc1)c1cccnc1` [Example 1, (4S)-(E)-7-[4-[4-[[(4-Cyclohexylbutyl)amino]carbonyl]-4,5-dihydro-2-oxazolyl]phenyl]-7-(3-pyridyl)hept-6-enoic Acid] showed a pIC50 in assay [1] of 7.09.
